Test results reported in US12344597B2, “Alkoxy-substituted pyridinyl derivatives as LPA1 receptor antagonists and their use in the treatment of fibrosis” (IDORSIA PHARMACEUTICALS LTD, priority 2018, dated 2025).
Counter-ions that a name gives are not always drawn.

The compounds below were run against human LPA1 receptor (Homo sapiens (Human), UniProt Q92633) (assay: Beta-arrestin recruitment assay to determine IC50 values for human LPAR1). Conditions: antagonist mode, Tango EDG2-bla U2OS cells, LPA 18:1 500 nM final.
Sequence of human LPA1 receptor (Q92633 whole entry): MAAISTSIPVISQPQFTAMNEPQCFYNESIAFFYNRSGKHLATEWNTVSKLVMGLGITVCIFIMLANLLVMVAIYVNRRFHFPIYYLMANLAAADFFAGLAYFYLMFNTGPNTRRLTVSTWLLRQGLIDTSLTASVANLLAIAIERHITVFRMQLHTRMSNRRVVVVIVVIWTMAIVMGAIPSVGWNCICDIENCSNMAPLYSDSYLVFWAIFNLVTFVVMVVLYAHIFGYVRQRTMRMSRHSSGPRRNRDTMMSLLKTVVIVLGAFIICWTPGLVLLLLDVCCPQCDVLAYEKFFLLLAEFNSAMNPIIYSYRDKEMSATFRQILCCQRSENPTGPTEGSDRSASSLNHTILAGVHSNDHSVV
Type: cell-based
How it was run: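 Tango EDG2-bla U2OS cells: LPA-driven beta-arrestin/TEV protease recruitment releases Gal4-VP16, inducing beta-lactamase reporter read with live-cell substrate. Cells seeded 20 h at 37 °C beforehand. IC50 is antagonist concentration inhibiting 50% of maximal response.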

Point of comparison: Cc1ccc(NC(=O)C2(c3ccccc3C(C)C)CN(Cc3nc(CC(=O)O)co3)C2)c(OC(F)F)n1 [Ex 11-59, 2-(2-((3-((2-(difluoromethoxy)-6-methylpyridin-3-yl)carbamoyl)-3-(2-isopropylphenyl)azetidin-1-yl)methyl)oxazol-4-yl)acetic acid], IC50 38 nM. Against it:
- Cc1ccc(NC(=O)C2(c3ccccc3C(C)C)CN(S(=O)(=O)CCC(=O)NOCc3ccccc3)C2)c(OC(F)F)n1 [Ex 13-28, 1-((3-((benzyloxy)amino)-3-oxopropyl)sulfonyl)-N-(2-(difluoromethoxy)-6-methylpyridin-3-yl)-3-(2-isopropylphenyl)azetidine-3-carboxamide] — 2.9-fold higher, 110 nM
- Cc1ccc(NC(=O)C2(c3ccccc3C3CCCC3)CNC2)c(OC(F)F)n1 [Ex 25, 3-(2-cyclopentylphenyl)-N-(2-(difluoromethoxy)-6-methylpyridin-3-yl)azetidine-3-carboxamide] — 4.4-fold lower, 8.6 nM
- COC(=O)c1cc(N2CC(C(=O)Nc3ccc(C)nc3OC(F)F)(c3ccccc3C(C)C)C2)ncn1 [Ex 18-12, methyl 6-(3-((2-(difluoromethoxy)-6-methylpyridin-3-yl)carbamoyl)-3-(2-isopropylphenyl)azetidin-1-yl)pyrimidine-4-carboxylate] — 3.5-fold lower, 11 nM
- COC(=O)CCC(=O)N1CC(C(=O)Nc2ccc(Cl)nc2OC)(c2ccccc2C(C)C)C1 [Ex 12-69, methyl 4-(3-((6-chloro-2-methoxypyridin-3-yl)carbamoyl)-3-(2-isopropylphenyl)azetidin-1-yl)-4-oxobutanoate] — 6.1-fold higher, 230 nM
- Cc1ccc(NC(=O)C2(c3ccccc3C(C)C)CN(CCCC(C)(C)[N+](=O)[O-])C2)c(OC(F)F)n1 [Ex 11-61, N-(2-(difluoromethoxy)-6-methylpyridin-3-yl)-3-(2-isopropylphenyl)-1-(4-methyl-4-nitropentyl)azetidine-3-carboxamide] — within 1.5-fold, 39 nM
- CC(C)c1ccccc1C1(C(=O)Nc2cccnc2OC(F)F)CN(S(N)(=O)=O)C1 [Ex 15-6, N-(2-(difluoromethoxy)pyridin-3-yl)-3-(2-isopropylphenyl)-1-sulfamoylazetidine-3-carboxamide] — 3.8-fold lower, 10 nM
- Cc1ccc(NC(=O)C2(c3c(C)cccc3C(C)C)CN(C(=O)CC(C)(C)C(=O)O)C2)c(OC(F)F)n1 [Ex 39-1, 4-(3-((2-(difluoromethoxy)-6-methylpyridin-3-yl)carbamoyl)-3-(2-isopropyl-6-methylphenyl)azetidin-1-yl)-2,2-dimethyl-4-oxobutanoic acid] — within 1.5-fold, 51 nM
- COC(=O)C1(CN2CC(C(=O)Nc3ccc(C)nc3OC(F)F)(c3ccccc3C(C)C)C2)CC1 [Ex 11-26, methyl 1-((3-((2-(difluoromethoxy)-6-methylpyridin-3-yl)carbamoyl)-3-(2-isopropylphenyl)azetidin-1-yl)methyl)cyclopropane-1-carboxylate] — 11-fold higher, 400 nM
- Cc1ccc(NC(=O)C2(c3ccccc3C(C)C)CN(C(=O)CC3CCNCC3)C2)c(OC(F)F)n1 [Ex 12-138, N-(2-(difluoromethoxy)-6-methylpyridin-3-yl)-3-(2-isopropylphenyl)-1-(2-(piperidin-4-yl)acetyl)azetidine-3-carboxamide] — within 1.5-fold, 43 nM
- COc1ccc(NC(=O)C2(c3ccccc3C(C)C)CNC2)c(OC)n1 [Ex 6, N-(2,6-dimethoxypyridin-3-yl)-3-(2-isopropylphenyl)azetidine-3-carboxamide hydrochloride] — 2.2-fold higher, 84 nM
- Cc1ccc(NC(=O)C2(c3ccccc3C(C)C)CN(CC3(C(=O)O)CC3)C2)c(OC(F)F)n1 [Ex 11-27, 1-((3-((2-(difluoromethoxy)-6-methylpyridin-3-yl)carbamoyl)-3-(2-isopropylphenyl)azetidin-1-yl)methyl)cyclopropane-1-carboxylic acid] — the same, 38 nM
- Cc1ccc(NC(=O)C2(c3ccccc3C(C)C)CN(C(=O)c3cn[nH]c3)C2)c(OC(F)F)n1 [Ex 12-15, N-(2-(difluoromethoxy)-6-methylpyridin-3-yl)-3-(2-isopropylphenyl)-1-(1H-pyrazole-4-carbonyl)azetidine-3-carboxamide] — within 1.5-fold, 36 nM
- Cc1ccc(NC(=O)C2(c3ccccc3C(C)C)CN(C(=O)C3COCCN3)C2)c(OC(F)F)n1 (centres unmarked) [Ex 12-43, N-(2-(difluoromethoxy)-6-methylpyridin-3-yl)-3-(2-isopropylphenyl)-1-(morpholine-3-carbonyl)azetidine-3-carboxamide] — 2.8-fold higher, 106 nM
- CC(=O)N(O)CCC(=O)N1CC(C(=O)Nc2ccc(C)nc2OC(F)F)(c2ccccc2C(C)C)C1 [Ex 12-132, N-(2-(difluoromethoxy)-6-methylpyridin-3-yl)-1-(3-(N-hydroxyacetamido)propanoyl)-3-(2-isopropylphenyl)azetidine-3-carboxamide] — within 1.5-fold, 35 nM
- Cc1ccc(NC(=O)C2(c3ccccc3C(C)C)CCN(C(=O)OC(C)(C)C)CC2)c(OC(F)F)n1 [Ex 4-1, tert-butyl 4-((2-(difluoromethoxy)-6-methylpyridin-3-yl)carbamoyl)-4-(2-isopropylphenyl)piperidine-1-carboxylate] — 2-fold lower, 19 nM
- Cc1ccc(C(C)C)c(C2(C(=O)Nc3ccc(C)nc3OC(F)F)CNC2)c1 [Ex 34, N-(2-(difluoromethoxy)-6-methylpyridin-3-yl)-3-(2-isopropyl-5-methylphenyl)azetidine-3-carboxamide] — 3.7-fold higher, 142 nM
- Cc1ccc(NC(=O)C2(c3ccccc3C(C)C)CN(CCO)C2)c(OC(F)F)n1 [Ex 11-2, N-(2-(difluoromethoxy)-6-methylpyridin-3-yl)-1-(2-hydroxyethyl)-3-(2-isopropylphenyl)azetidine-3-carboxamide] — 7.6-fold lower, 5 nM
- Cc1ccc(NC(=O)C2(c3ccccc3C(C)C)CN(CCNCC(=O)O)C2)c(OC(F)F)n1 [Ex 11-80, (2-(3-((2-(difluoromethoxy)-6-methylpyridin-3-yl)carbamoyl)-3-(2-isopropylphenyl)azetidin-1-yl)ethyl)glycine] — 7.8-fold higher, 297 nM
- Cc1ccc(NC(=O)C2(c3ccccc3C(C)C)CN(C(=O)CC3(C(=O)O)CCN(C)CC3)C2)c(OC(F)F)n1 [Ex 12-124, 4-(2-(3-((2-(difluoromethoxy)-6-methylpyridin-3-yl)carbamoyl)-3-(2-isopropylphenyl)azetidin-1-yl)-2-oxoethyl)-1-methylpiperidine-4-carboxylic acid] — within 1.5-fold, 56 nM
- CC(C)c1ccccc1C1(C(=O)Nc2cccnc2OC(F)F)CN(S(=O)(=O)CCC(=O)OCc2ccccc2)C1 [Ex 13-9, benzyl 3-((3-((2-(difluoromethoxy)pyridin-3-yl)carbamoyl)-3-(2-isopropylphenyl)azetidin-1-yl)sulfonyl)propanoate] — within 1.5-fold, 37 nM
- COC(=O)CCC(=O)N1CCC(C(=O)Nc2ccc(C)nc2OC(F)F)(c2ccccc2C(C)C)CC1 [Ex 12-72, methyl 4-(4-((2-(difluoromethoxy)-6-methylpyridin-3-yl)carbamoyl)-4-(2-isopropylphenyl)piperidin-1-yl)-4-oxobutanoate] — 9.5-fold lower, 4 nM
- COc1cc(Cl)cnc1NC(=O)C1(c2ccccc2C(C)C)CNC1 [Ex 70, N-(5-chloro-3-methoxypyridin-2-yl)-3-(2-isopropylphenyl)azetidine-3-carboxamide] — 23-fold higher, 866 nM
- C=C(CC(=O)O)C(=O)N1CC(C(=O)Nc2ccc(C)nc2OC(F)F)(c2ccccc2C(C)C)C1 [Ex 12-93, 3-(3-((2-(difluoromethoxy)-6-methylpyridin-3-yl)carbamoyl)-3-(2-isopropylphenyl)azetidine-1-carbonyl)but-3-enoic acid] — 5.4-fold lower, 7 nM
- Cc1ccc(NC(=O)C2(c3ccccc3C(C)C)CN(C(=O)CNCCC(=O)O)C2)c(OC(F)F)n1 [Ex 44, 3-((2-(3-((2-(difluoromethoxy)-6-methylpyridin-3-yl)carbamoyl)-3-(2-isopropylphenyl)azetidin-1-yl)-2-oxoethyl)amino)propanoic acid] — 4.1-fold higher, 155 nM
- Cc1ccc(NC(=O)C2(c3ccccc3C(C)C)CN(c3ccc(C(=O)O)cn3)C2)c(OC(F)F)n1 [Ex 18-2, 6-(3-((2-(difluoromethoxy)-6-methylpyridin-3-yl)carbamoyl)-3-(2-isopropylphenyl)azetidin-1-yl)nicotinic acid] — 6.3-fold lower, 6 nM
- N-(6-ethoxy-2-methoxypyridin-3-yl)-3-(2-isopropylphenyl)azetidine-3-carboxamide [Ex 9] — 4.3-fold higher, 163 nM
- Cc1ccc(NC(=O)C2(c3ccccc3C(C)C)CN(C(=O)CC(C)C(=O)O)C2)c(OC(F)F)n1 (centres unmarked) [Ex 12-78, 4-(3-((2-(difluoromethoxy)-6-methylpyridin-3-yl)carbamoyl)-3-(2-isopropylphenyl)azetidin-1-yl)-2-methyl-4-oxobutanoic acid] — within 1.5-fold, 27 nM
- Cc1ccc(NC(=O)C2(c3ccccc3C(C)C)CN(C(=O)C[C@H](C)C(=O)O)C2)c(OC(F)F)n1 [Ex 12-79, (S)-4-(3-((2-(difluoromethoxy)-6-methylpyridin-3-yl)carbamoyl)-3-(2-isopropylphenyl)azetidin-1-yl)-2-methyl-4-oxobutanoic acid] — 2.5-fold lower, 15 nM
- Cc1cnc(NC(=O)C2(c3ccccc3C(C)C)CN(S(=O)(=O)CCC(=O)OCc3ccccc3)C2)c(OC(F)F)c1 [Ex 80-1, benzyl 3-((3-((3-(difluoromethoxy)-5-methylpyridin-2-yl)carbamoyl)-3-(2-isopropylphenyl)azetidin-1-yl)sulfonyl)propanoate] — within 1.5-fold, 55 nM
- Cc1ccc(NC(=O)C2(c3ccccc3C(C)C)CN(C(=O)CNC[C@@H](C)O)C2)c(OC(F)F)n1 [Ex 12-55, (R)-N-(2-(difluoromethoxy)-6-methylpyridin-3-yl)-1-((R)-(2-hydroxypropyl)glycyl)-3-(2-isopropylphenyl)azetidine-3-carboxamide] — 13-fold lower, 3 nM
- Cc1ccc(NC(=O)C2(c3ccccc3C(C)C)CN(CCCC(C)(C)C(=O)O)C2)c(OC(F)F)n1 [Ex 11-69, 5-(3-((2-(difluoromethoxy)-6-methylpyridin-3-yl)carbamoyl)-3-(2-isopropylphenyl)azetidin-1-yl)-2,2-dimethylpentanoic acid] — 2.5-fold lower, 15 nM
